What follows are compounds tested on HCV replicon (assay: HCV replicon replication assay (NPTII ELISA)). Conditions: Hepatitis C virus, Huh-7, 72 h, inhibition of HCV replicon replication in Huh-7 HCV replicon-containing cells, three days incubation, NPT level by ELISA; read-out: EC50.
Assay type: cell-based, Hepatitis C virus (Huh-7 cells)
Description: Compounds claimed herein are tested for the ability to inhibit viral replication of the Hepatitis C replicon in cultured cells in which the HCV replicon construct has been incorporated. The HCV replicon system was described by Bartenschlager, et. al (Science, 285, pp. 110-113 (1999)). The replicon system is predictive of in vivo anti-HCV activity; compounds that are active in humans uniformly evidence activity in the replicon assay.
In this assay HCV replicon containing cells are treated with different concentrations of the test compound to ascertain the ability of the test compound to suppress replication of the HCV replicon. As a positive control, HCV replicon-containing cells are treated with different concentrations of interferon alpha, a known inhibitor of HCV replication. The replicon assay system includes Neomycin Phosphotransferase (NPT) as a component of the replicon itself in order to detect the transcription of replicon gene products in the host cell. Cells in which the HCV replicon is actively replicating have high levels of NPT; the level of NPT is proportional to HCV replication. […] The NPT level of each sample is measured using a captured ELISA.
The HCV replicon contains, 5′-3′, the HCV-IRES, the neomycin phosphotransferase (neo) gene, the IRES of encephalomyocarditis virus, which directs translation of HCV sequences NS3 to NS5B, and the 3′-NTR. The sequence of the HCV replicon has been deposited in GenBank (Accession no. AJ242652).
The replicon is transfected into Huh-7 cells using standard methods such as electroporation.
The cells are then seeded onto 96-well plates at a density of 6000-7500 cells/100 microliters/well (6-7.5×10^5 cells/10 ml/plate). The plates are then incubated at 37° C. in a 5% CO2 incubator.
HCV replicon-containing cells are rinsed with once PBS once; 2 mls of trypsin are then added. Cells are incubated at 37° C. in a 5% CO2 incubator for 3-5 minutes. 10 mls of complete medium is added to stop the reaction. Cells are blown gently, put into a 15 ml tube, and spun at 1200 rpm for four minutes. The trypsin/medium solution is removed and 5 mls of medium (500 ml DMEM (high glucose)) from BRL catalog #12430-054; 50 mls 10% FBS, 5% Geneticin G418 (50 mg/ml, BRL catalog #10131-035), 5 ml MEM non-essential amino acids (100× BRL #11140-050) and 5 ml pen-strep (BRL #15140-148) is added. The cells and media are mixed carefully
Cells are plated with screening medium (500 ml DMEM (BRL #21063-029), 50 ml FBS (BRL #10082-147) and 5 ml MEM non-essential amino acid (BRL #11140-050) at 6000-7500 cells/100 μl/well of 96 well plate (6-7.5×10^5 cells/10 ml/plate). Plates are placed into 37° C. 5% CO2 incubator overnight.
The following morning, drugs (test compounds or interferon alpha) are diluted in 96 well U bottom plates with media or DMSO/media, depending on the final concentration chosen for screening. Generally for 6 concentrations of each test compounds ranging from 10 micromolar to 0.03 micromolar are applied. 100 μl of the test compound dilution is placed in wells of the 96 well plate containing the HCV replicon cells. Media without drug is added to some wells as a negative controls. DMSO is known to affect cell growth. Therefore, if drugs diluted in DMSO are used, all wells, including negative control (media only) and positive control (interferon alpha) wells, must contain the same concentration of DMSO, for single dose screening. The plates are incubated at 37° C. in a humidified 5% CO2 environment for three days.
On day four, the NTPII assay is quantitated. The medium is poured from the plates and the plates are washed once in 200 μl of PBS. The PBS is then decanted and the plates tapped in a paper towel to remove any remaining PBS. Cells are fixed in situ with 100 μl/well of pre-cooled (−20° C.) methanol:acetone (1:1) and the plates are placed at −20° C. for 30 minutes.
The fixing solution is poured from the plates and the plates allowed to air-dry completely (approximately one hour). […]

Row | SMILES | EC50
1 | NC(=O)N(c1ccc(OCC2CCCCC2)c(F)c1)c1nc(-c2ccccn2)cs1 [Compound 118, 1-(4-(cyclohexylmethoxy)-3-fluorophenyl)-1-(4-(pyridin-2-yl)thiazol-2-yl)urea] | 1000 to 10000 nM
2 | CCCCCCCOc1ccc(N(C(=O)C2CCCCC2)c2nc(-c3ccccn3)cs2)cc1 [Compound 95, N-(4-(heptyloxy)phenyl)-N-(4-(pyridin-2-yl)thiazol-2-yl)cyclohexanecarboxamide] | 1000 to 10000 nM
3 | CCCCCOc1ccc(N(C(=O)NCC)c2nc(-c3cccnc3)cs2)cc1C(F)(F)F [Compound 75, 3-ethyl-1-(4-(pentyloxy)-3-(trifluoromethyl)phenyl)-1-(4-(pyridin-3-yl)thiazol-2-yl)urea] | < 1000 nM
4 | CCCCCCCCc1ccc(N(C(N)=O)c2nc(-c3cccnc3)c(F)s2)cc1C(F)(F)F [Compound 178, 1-(5-fluoro-4-(pyridin-3-yl)thiazol-2-yl)-1-(4-octyl-3-(trifluoromethyl)phenyl)urea] | < 1000 nM
5 | CCCCCCCCOc1ccc(N(C(C)=O)c2ncc(-c3cccnc3)s2)cc1C(F)(F)F [Compound 194, N-(4-(octyloxy)-3-(trifluoromethyl)phenyl)-N-(5-(pyridin-3-yl)thiazol-2-yl)acetamide] | < 1000 nM
6 | CCCCOc1ccc(N(C(N)=O)c2nc(-c3ccc(C)nc3)cs2)cc1C(F)(F)F [Compound 132, 1-(4-butoxy-3-(trifluoromethyl)phenyl)-1-(4-(6-methylpyridin-3-yl)thiazol-2-yl)urea] | < 1000 nM
7 | CCCCCOc1ccc2c(c1)[nH]c(=O)n2-c1nc(-c2cccnc2)cs1 [Compound 127, 5-(pentyloxy)-1-(4-(pyridin-3-yl)thiazol-2-yl)-1H-benzo[d]imidazol-2(3H)-one] | 1000 to 10000 nM
8 | CCCCCCOc1ccc(N(C(N)=O)c2nc(-c3ccc4c(c3)NC(=O)CO4)cs2)cc1 [Compound 121, 1-(4-(hexyloxy)phenyl)-1-(4-(3-oxo-3,4-dihydro-2H-benzo[b][1,4]oxazin-6-yl)thiazol-2-yl)urea] | 1000 to 10000 nM
9 | CCCCCOc1ccc(N(C(=O)CC(=O)OC)c2nc(-c3ccc(F)cc3)cs2)cc1F [Compound 42, methyl 3-((3-fluoro-4-(pentyloxy)phenyl)(4-(4-fluorophenyl)thiazol-2-yl)amino)-3-oxopropanoate] | < 1000 nM
10 | CCCCCCCOc1ccc(N(C(N)=O)c2nc(-c3ccc(F)cc3)cs2)cc1 [Compound 71, 1-(4-(4-fluorophenyl)thiazol-2-yl)-1-(4-(heptyloxy)phenyl)urea] | < 1000 nM
11 | CCCCCCCOc1ccc(N(C(=O)c2cc(C)on2)c2nc(-c3nc4ccccc4s3)cs2)cc1 [Compound 92, N-(4-(benzo[d]thiazol-2-yl)thiazol-2-yl)-N-(4-(heptyloxy)phenyl)-5-methylisoxazole-3-carboxamide] | 1000 to 10000 nM
12 | CCCCCCCCOc1ccc(N(C(=O)NCC)c2nc(-c3cccnc3)cs2)cc1 [Compound 73, 3-ethyl-1-(4-(octyloxy)phenyl)-1-(4-(pyridin-3-yl)thiazol-2-yl)urea] | > 10000 nM
13 | CCCCCOc1ccc(N(C)c2nc(C(=O)Nc3ccc(C#N)cc3)cs2)cc1C(F)(F)F [Compound 5, N-(4-cyanophenyl)-2-(methyl(4-(pentyloxy)-3-(trifluoromethyl)phenyl)amino)thiazole-4-carboxamide] | > 10000 nM
14 | CCCCCOc1ccc(N(C(=O)C(=O)OC)c2nc(-c3cccnc3)cs2)cc1C(F)(F)F [Compound 28, methyl 2-oxo-2-((4-(pentyloxy)-3-(trifluoromethyl)phenyl)(4-(pyridin-3-yl)thiazol-2-yl)amino)acetate] | < 1000 nM
15 | CCCCCOc1ccc(N(C)c2nc(C(=O)O)cs2)cc1C(F)(F)F [Compound 3, 2-(methyl(4-(pentyloxy)-3-(trifluoromethyl)phenyl)amino)thiazole-4-carboxylic acid] | > 10000 nM

Same assay, conditions: inhibition of HCV replicon replication in Huh-7 HCV replicon-containing cells, three days incubation, NPT level by ELISA

Row | SMILES | EC50
16 | CC(C)COc1ccc(N(C(N)=O)c2nc(-c3cccnc3)cs2)cc1C(F)(F)F [Compound 152, 1-(4-isobutoxy-3-(trifluoromethyl)phenyl)-1-(4-(pyridin-3-yl)thiazol-2-yl)urea] | 1000 to 10000 nM
